From the supplement of paper PMC11003180

Key:
Experiment in all cases: drug sensitivity score (DSS) from 5-dose viability curve (DSS (area-based score, 0 = no response)); higher = more sensitive (stronger viability inhibition); extreme values may be limits of the assay
[1] = tested on: MDCK wild-type - doxycycline; conditions: doxycycline: none; 72 h
Procedure, shortened: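 Parental MDCK cells without doxycycline were dispensed at 2000 cells/well onto pre-spotted 384-well plates. The plates held an oncology library of 528 drugs at five doses (1-10,000 nM) and were incubated 72 h at 37 °C. Viability was read as CellTiter-Glo luminescence and scaled per plate between vehicle and positive controls. Drug sensitivity scores came from dose-response curve fits in the Breeze pipeline.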

[2] = tested on: MDCK p60AmotL2-inducible + doxycycline (p60AmotL2 expressing); conditions: doxycycline: 10 ng/mL; 72 h
Procedure, shortened: (§1)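 Parental MDCK cells and MDCK cells with a doxycycline-inducible transgene were both grown with doxycycline at 10 ng/mL in the medium before plating, then dispensed at 2000 cells/well into 384-well plates pre-spotted with an oncology library of 528 drugs at five doses (1-10,000 nM). After 72 h at 37 °C, CellTiter-Glo luminescence was recorded and scaled on each plate between vehicle and positive controls. This scaled signal served as the viability readout, and drug sensitivity scores were derived from dose-response curve fits in the Breeze pipeline.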

[3] = tested on: MDCK wild-type + doxycycline; conditions: doxycycline: 10 ng/mL; 72 h
Procedure, shortened: as §1

CCC1=C[C@@H]2CN(C1)Cc1c([nH]c3ccccc13)[C@@](C(=O)OC)(c1cc3c(cc1OC)N(C)[C@H]1[C@@](O)(C(=O)OC)[C@H](OC(C)=O)[C@]4(CC)C=CCN5CC[C@]31[C@@H]54)C2 [Vinorelbine]
drug sensitivity score [1]: 29.8 | drug sensitivity score [2]: 34.2 | drug sensitivity score [3]: 30.2

O=C(Nc1cccnc1)N1CCC(Cc2cccc(Oc3ccc(C(F)(F)F)cn3)c2)CC1 [PF-3845]
drug sensitivity score [1]: 0 | drug sensitivity score [2]: 0.8 | drug sensitivity score [3]: 0

CCNCCS(=O)(=O)NC[C@@]1(c2ccccc2)SC(NC(=O)C(C)(C)C)=NN1C(=O)C(C)(C)C [Litronesib]
drug sensitivity score [1]: 22 | drug sensitivity score [2]: 26.6 | drug sensitivity score [3]: 25.1

CO[C@H]1C(=O)[C@]2(C)[C@@H](OC)C[C@H]3OC[C@@]3(OC(C)=O)[C@H]2[C@H](OC(=O)c2ccccc2)[C@]2(O)C[C@H](OC(=O)[C@H](O)[C@@H](NC(=O)OC(C)(C)C)c3ccccc3)C(C)=C1C2(C)C [Cabazitaxel]
drug sensitivity score [1]: 33.8 | drug sensitivity score [2]: 38 | drug sensitivity score [3]: 37.7

CNC(=O)c1cc(Oc2ccc(NC(=O)Nc3ccc(Cl)c(C(F)(F)F)c3)c(F)c2)ccn1 [Regorafenib]
drug sensitivity score [1]: 3.2 | drug sensitivity score [2]: 5.6 | drug sensitivity score [3]: 3.2

COc1ccc2[nH]cc(/C=C3\C(=O)Nc4ccc(NC(=O)CCN5CCCCC5)cc43)c2c1
drug sensitivity score [1]: 6 | drug sensitivity score [2]: 9.4 | drug sensitivity score [3]: 7.3

COCCNCc1ccc(-c2cc3nccc(Oc4ccc(NC(=S)NC(=O)Cc5ccc(F)cc5)cc4F)c3s2)nc1 [Glesatinib]
drug sensitivity score [1]: 0 | drug sensitivity score [2]: 0.4 | drug sensitivity score [3]: 0

Clc1ccc(Nc2nnc(Cc3ccncc3)c3ccccc23)cc1 [Vatalanib]
drug sensitivity score [1]: 0 | drug sensitivity score [2]: 0 | drug sensitivity score [3]: 0

CN1CCN(C2CCC(n3cc(-c4ccc(Oc5ccccc5)cc4)c4c(N)ncnc43)CC2)CC1 (configuration not stated)
drug sensitivity score [1]: 7 | drug sensitivity score [2]: 14 | drug sensitivity score [3]: 9.4

COCCOc1cnc2ccn([C@H](C)c3nnc4c(F)cc(-c5cnn(C)c5)cn34)c(=O)c2c1 [AMG-337]
drug sensitivity score [1]: 0 | drug sensitivity score [2]: 0 | drug sensitivity score [3]: 0

COc1cccc2c1c(O)c(C(=O)N(C)c1ccc(C(F)(F)F)cc1)c(=O)n2C [Tasquinimod]
drug sensitivity score [1]: 0 | drug sensitivity score [2]: 0 | drug sensitivity score [3]: 0

CCc1c(C(=O)C(N)=O)c2c(OCC(=O)O)cccc2n1Cc1ccccc1 [Varespladib]
drug sensitivity score [1]: 0 | drug sensitivity score [2]: 0 | drug sensitivity score [3]: 0

O=C1CCC(N2C(=O)c3ccccc3C2=O)C(=O)N1 (configuration not stated) [Thalidomide]
drug sensitivity score [1]: 0 | drug sensitivity score [2]: 0 | drug sensitivity score [3]: 0

CN1C(=O)N[C@H](Cc2c[nH]c3c(Cl)cccc23)C1=O [Necrostatin 2]
drug sensitivity score [1]: 0 | drug sensitivity score [2]: 0 | drug sensitivity score [3]: 0

CCOC(=O)CCNc1cc(N2CCc3ccccc3CC2)nc(-c2ccccn2)n1 [GSK-J4]
drug sensitivity score [1]: 13.7 | drug sensitivity score [2]: 3.9 | drug sensitivity score [3]: 3.8

Cc1ccc(-c2cc(C(F)(F)F)nn2-c2ccc(S(N)(=O)=O)cc2)cc1 [Celecoxib]
drug sensitivity score [1]: 0 | drug sensitivity score [2]: 0 | drug sensitivity score [3]: 0

Nc1ncnc2c1nc(Cl)n2[C@@H]1O[C@H](CO)[C@@H](O)[C@H]1O [8-chloro-adenosine]
drug sensitivity score [1]: 6.7 | drug sensitivity score [2]: 13.6 | drug sensitivity score [3]: 8.3

C[C@@H](Oc1ccc2[nH]nc(/C=C/c3cnn(CCO)c3)c2c1)c1c(Cl)cncc1Cl
drug sensitivity score [1]: 7.1 | drug sensitivity score [2]: 9.3 | drug sensitivity score [3]: 7.2

COc1cccc2c1C(=O)c1c(O)c3c(c(O)c1C2=O)C[C@@](O)(C(=O)CO)C[C@@H]3O[C@H]1C[C@H](N)[C@@H](O)[C@H](C)O1 [Epirubicin]
drug sensitivity score [1]: 5.9 | drug sensitivity score [2]: 11.6 | drug sensitivity score [3]: 10

CCCCCCCCCCCCCCCCCCOP(=O)([O-])OC1CC[N+](C)(C)CC1 [Perifosine]
drug sensitivity score [1]: 0 | drug sensitivity score [2]: 0 | drug sensitivity score [3]: 0

CN1CCN(c2cc(C(=O)Nc3ccc4c(c3)-c3c(c(C(N)=O)nn3-c3ccc(F)cc3)CC4)c(Cl)cn2)CC1 [PHA 408]
drug sensitivity score [1]: 0 | drug sensitivity score [2]: 0.2 | drug sensitivity score [3]: 0

CN1CCC(COc2cnc(-c3cccc(Cn4nc(-c5cccc(C#N)c5)ccc4=O)c3)nc2)CC1 [Tepotinib]
drug sensitivity score [1]: 0 | drug sensitivity score [2]: 0.1 | drug sensitivity score [3]: 0

Nc1cccc2c1CN(C1CCC(=O)NC1=O)C2=O (configuration not stated) [Lenalidomide]
drug sensitivity score [1]: 0 | drug sensitivity score [2]: 0 | drug sensitivity score [3]: 0

COc1cc(N2CCC(N3CCN(C)CC3)CC2)ccc1Nc1ncc(Cl)c(Nc2ccccc2P(C)(C)=O)n1 [Brigatinib]
drug sensitivity score [1]: 4.1 | drug sensitivity score [2]: 5.2 | drug sensitivity score [3]: 2.6

CC(C)c1c(C(=O)Nc2ccccc2)c(-c2ccccc2)c(-c2ccc(F)cc2)n1CC[C@@H](O)C[C@@H](O)CC(=O)O [Atorvastatin]
drug sensitivity score [1]: 0 | drug sensitivity score [2]: 0.4 | drug sensitivity score [3]: 0

CNc1ncc2cc(-c3cc(NC(=O)NCCC(C)(C)C)c(F)cc3C)c(C)nc2n1
drug sensitivity score [1]: 2.8 | drug sensitivity score [2]: 9 | drug sensitivity score [3]: 5.2

COc1cc(Nc2ncc3c(n2)-c2ccc(Cl)cc2C(c2c(F)cccc2OC)=NC3)ccc1C(=O)O [Alisertib]
drug sensitivity score [1]: 0 | drug sensitivity score [2]: 10.6 | drug sensitivity score [3]: 0

CN(C)C[C@@H]1CCn2cc(c3ccccc32)C2=C(C(=O)NC2=O)c2cn(c3ccccc23)CCO1 [Ruboxistaurin]
drug sensitivity score [1]: 5.8 | drug sensitivity score [2]: 5.8 | drug sensitivity score [3]: 5.5

NS(=O)(=O)NCCNc1nonc1/C(=N/O)Nc1ccc(F)c(Br)c1 [Epacadostat]
drug sensitivity score [1]: 0 | drug sensitivity score [2]: 0 | drug sensitivity score [3]: 0

C[C@@H]1CN(Cc2ccc(F)cc2)[C@@H](C)CN1C(=O)c1cc2c(C(=O)C(=O)N(C)C)cn(C)c2cc1Cl [Talmapimod]
drug sensitivity score [1]: 0 | drug sensitivity score [2]: 0 | drug sensitivity score [3]: 0

C=CCn1c(=O)c2cnc(Nc3ccc(N4CCN(C)CC4)cc3)nc2n1-c1cccc(C(C)(C)O)n1 [AZD1775]
drug sensitivity score [1]: 12.1 | drug sensitivity score [2]: 12.9 | drug sensitivity score [3]: 15.9

COc1cc([C@@H]2c3cc4c(cc3[C@@H](O[C@@H]3O[C@@H]5CO[C@@H](C)O[C@H]5[C@H](O)[C@H]3O)[C@H]3COC(=O)[C@H]23)OCO4)cc(OC)c1O [Etoposide]
drug sensitivity score [1]: 4.3 | drug sensitivity score [2]: 9.5 | drug sensitivity score [3]: 6.9

CN(C)C(=N)NC(=N)N [Metformin]
drug sensitivity score [1]: 0 | drug sensitivity score [2]: 0 | drug sensitivity score [3]: 0

C[C@]12CC[C@H](O)CC1=CC[C@@H]1[C@@H]2CC[C@]2(C)C(c3cccnc3)=CC[C@@H]12 [Abiraterone]
drug sensitivity score [1]: 0 | drug sensitivity score [2]: 0 | drug sensitivity score [3]: 0

COC(=O)c1ccc2c(c1)[nH]c1ncnc(NCCCN3CCCCC3)c12 [UM729]
drug sensitivity score [1]: 0 | drug sensitivity score [2]: 3 | drug sensitivity score [3]: 0.9

COc1cc(N2CCC(N3CCN(C)CC3)CC2)ccc1Nc1ncnc(Nc2ccccc2S(=O)(=O)C(C)C)n1 [ASP3026]
drug sensitivity score [1]: 6.3 | drug sensitivity score [2]: 9.5 | drug sensitivity score [3]: 6.5

Cn1cc(-c2ccc(F)c(C(F)(F)F)c2)nc1C1CCN(c2ncnc3[nH]ncc23)CC1
drug sensitivity score [1]: 0 | drug sensitivity score [2]: 3 | drug sensitivity score [3]: 0

CC(C)C[C@H](NC(=O)CNC(=O)c1cc(Cl)ccc1Cl)B(O)O [Ixazomib]
drug sensitivity score [1]: 9.6 | drug sensitivity score [2]: 9.7 | drug sensitivity score [3]: 9.4

O=C(Nc1nc2cccc(-c3ccc(CN4CCS(=O)(=O)CC4)cc3)n2n1)C1CC1 [Filgotinib]
drug sensitivity score [1]: 0 | drug sensitivity score [2]: 0 | drug sensitivity score [3]: 0

COc1cc2c(NC3CCN(C(C)C)CC3)nc(C3CCCCC3)nc2cc1OCCCN1CCCC1 [UNC0638]
drug sensitivity score [1]: 5.2 | drug sensitivity score [2]: 5 | drug sensitivity score [3]: 5.3

CC[C@]1(O)C[C@@H]2CN(CCc3c([nH]c4ccccc34)[C@@](C(=O)OC)(c3cc4c(cc3OC)N(C)[C@H]3[C@@](O)(C(=O)OC)[C@H](OC(C)=O)[C@]5(CC)C=CCN6CC[C@]43[C@@H]65)C2)C1 [Vinblastine]
drug sensitivity score [1]: 25.6 | drug sensitivity score [2]: 25.2 | drug sensitivity score [3]: 24

CC(C)(C)c1nc(-c2cccc(NS(=O)(=O)c3c(F)cccc3F)c2F)c(-c2ccnc(N)n2)s1 [Dabrafenib]
drug sensitivity score [1]: 0 | drug sensitivity score [2]: 0 | drug sensitivity score [3]: 0

Cc1cc(Nc2cc(CN3CCOCC3)c3nc(C)c(Cc4ccc(Cl)cc4F)n3n2)n[nH]1 [Gandotinib]
drug sensitivity score [1]: 6.3 | drug sensitivity score [2]: 8.2 | drug sensitivity score [3]: 5.5

COc1cc2c(NC3CCN(C(C)C)CC3)nc(N3CCC(F)(F)CC3)nc2cc1OCCCN1CCCC1 [UNC0642]
drug sensitivity score [1]: 0 | drug sensitivity score [2]: 0.2 | drug sensitivity score [3]: 0
